From patent US6387431B1, “Dicarboalkoxy dioxolanes as flavoring agent releasing compounds” (Givaudan SA, priority 2000, dated 2002)

Assays:
[1] = Stability (decomposition) in a still lemon beverage, hexane extraction and GC; format: physicochemical; conditions: for half life t½: 100 ppm, over 5 days, first order kinetic assumed
Procedure: The stability of compound 1 of Example 1 was tested in a still lemon beverage prepared by 1+5 dilution of lemon/lime-lemon beverage concentrate (210 g) with water ([…]). Formula of the lemon/lime-lemon beverage concentrate used: [table] Three 100 ml solutions containing each 100 ppm of the compound 1 were prepared and the decomposition of 1 was determined over a period of 5 days by extraction of 5 ml test solutions samples with hexane, spiked with 100 ppm of ethyl myristate. The extracts were analyzed by GC (Hewlett Packard 6890; column: DB-5, 30 m, 0.32 mm i.d.) and for each data point a mean value based on three measurements was calculated.

[2] = aqueous solutions and acidic aqueous alcoholic and non-alcoholic beverages; cited from earlier work

CCCOC(=O)[C@@H]1OC(C=C(C)CCC=C(C)C)O[C@H]1C(=O)OCCC (mixture of isomers) [compound 5, (E/Z)-(4R,5R)-2-(2,6-Dimethyl-hepta-1,5-dienyl)-[1,3]dioxolane-4,5-dicarboxylic acid dipropylester]
half life t½ [1]: 264 h

COC(C=C(C)CCC=C(C)C)OC [citral dimethyl acetal]
hydrolysis [2]: rapidly hydrolized

CC(C)=CCCC(C)=CC1O[C@@H](C(=O)OC(C)C)[C@H](C(=O)OC(C)C)O1 (mixture of isomers) [compound 1, (E/Z)-(4R,5R)-2-(2,6-Dimethyl-hepta-1,5-dienyl)-[1,3]dioxolane-4,5-dicarboxylic acid diisopropylester]
half life t½ [1]: 96 h

CCOC(=O)[C@@H]1OC(C=C(C)CCC=C(C)C)O[C@H]1C(=O)OCC (mixture of isomers) [compound 3, (E/Z)-(4R,5R)-2-(2,6-Dimethyl-hepta-1,5-dienyl)-[1,3]dioxolane-4,5-dicarboxylic acid diethylester]
half life ([1]; determined as in Example 6): 21 h

CC(C)=CCC/C(C)=C/C1OCC(C)O1 (centres unmarked) [citral propylene glycol acetal]
hydrolysis [2]: rapidly hydrolized
